From patent US20250101061A1, “UPREGULATION OF FERRITIN HEAVY CHAIN 1 EXPRESSION” (HBC Immunology Inc., priority 2022, published 2025)
Several values for one entry are separate records, joined by “and”; a condition that tells them apart may be missing. Equal entries are not always repeated. Peptide text beside a SMILES is read from it.

What was measured:
FTH1 = FTH1 gene expression in human skeletal muscle cells (HSkMC) by qRT-PCR; format: cell-based; settings: for FTH1 Fold Change at 0.625 μM / FTH1 Fold Change at 1.25 μM / FTH1 Fold Change at 2.5 μM / FTH1 Fold Change at 5 μM / FTH1 Fold Change at 10 μM: average of triplicate (SD ≤ 0.3); for FTH1 Fold Change, Average / FTH1 Fold Change (individual runs): SPH 100 μM or synthetic oligopeptide 10 μM, about 12 hours; for FTH1 Fold Change (individual runs): triplicate runs
Protocol: A cell line derived from human skeletal muscle was selected to assess the effect of SPH and oligopeptides on gene expression. HSkMC (PCS-950-010) obtained from ATCC (Manassas, VA) were propagated in Mesenchymal Stem Cell Basal Medium (ATCC) reduced serum medium supplemented with Primary Skeletal Cell Muscle Growth Kit (ATCC) that contains L-Glutamine (10 mM), Dexamethasone ([…]), rh epidermal growth factor (5 ng/ml), rh FGF-b (5 ng/ml), rh Insulin (25 μg/mL), and fetal bovine serum (4%), on 100 mm cell culture dishes. For this assay, the HSkMC cells were seeded in 24 well plates at a cell density of 1×10^4 cells/cm^2 and maintained at 37° C. in a humidified 5% CO2 atmosphere. […]
Total RNA was extracted using the UPzol reagent for the cell pellets, followed by a DNAse treatment (DNAse TURBO), using the manufacturer's protocols. Complementary DNA (cDNA) was synthesized with the High Capacity cDNA Reverse Transcription Kit (Applied Biosystems) using random hexamers. Gene expression levels were measured by qRT-PCR.
1 μl of cDNA corresponding to 50 ng of reverse transcribed RNA was amplified by Qpcr (QuantStudio™ 6 Flex Real-Time PCR System), using the TaqMan™ Universal PCR Master Mix (Catalog No. 4304437) and a TaqMan™ assay (Roche Molecular Systems, Inc., Pleasanton, CA).
FTH1 gene expression was estimated relative to expression of the housekeeping gene, beta-actin (ACTB), following the standard formula: […]
2-ΔCt. TaqMan™ probe IDs used were: (i) FTH1, Hs01694011_s1; and (ii) ACTB, Hs01060665_g1. All experiments were run in triplicate.

L-Ferritin = L-Ferritin gene expression in hemin-treated astrocytes by qRT-PCR; format: cell-based, human; settings: SPH 160 μM, oligopeptide 10 μM, collagen control 160 μM, after 6 hr hemin; for L-Ferritin Fold Change (individual runs): GAPDH housekeeping, normalized to control wells
Protocol: Immortalized human astrocytes (P10251-IM) were obtained from Innoprot, Spain and prepared under conditions recommended by the supplier. At 90% confluency, the P10251-IM cells were rinsed with 8 ml of DPBS and 2 ml of the T/E Solution (prepared as per Innoprot procedure), then added into an […] and gently rocked so that the P10251-IM cells would be completely covered. The flask was subsequently incubated at 37° C. for 2 minutes. Then 5 ml of fetal bovine serum (FBS) and the T/E solution from the flask were added into a 50 ml conical centrifuge tube. The flask was incubated for an additional 2 minutes, and the P10251-IM cells dislodged from the surface by gentle tapping. The P10251-IM cells were then transferred to the 50 ml conical centrifuge tube with 5 ml of TNS solution. The tube was centrifuged at 1000 rpm for 5 minutes. Then the P10251-IM cells were resuspended in the culture medium, counted, and plated in a poly-L-lysine-coated culture plate at 1×10^4 cell density. Cells were tested after they were incubated for 21 days in vitro.
Confluent P10251-IM cell cultures were washed and then pre-treated with medium alone, or medium supplemented with SPH (160 μM) or an oligopeptide (10 μM) for 24 hr at 37° C. Commercial collagen peptide (Vital Protein) at 160 μM concentration and sterile water were used as negative controls. The P10251-IM cells were subsequently treated with 30 μM hemin in serum-free medium consisting of MEM with 10 mM glucose (MEM10) for 6 hrs.
L-Ferritin and H-Ferritin gene expression were then quantified. Briefly, after 6 hr incubation with hemin, the astrocytes were lysed, and RNA was extracted using the Qiagen lipid mini kit. The expression of both genes (L-ferritin and H-ferritin) involved in iron homeostasis was assessed by qRT-PCR. Fold changes were calculated using the ΔCt method, using GAPDH as the housekeeping gene. Fold changes were normalized to expression levels in control wells. Experiments were run in triplicate.
The primers used for amplification of cDNA were: […]

H-Ferritin = H-Ferritin protein levels in mouse bone marrow-derived macrophages (ELISA); format: cell-based; settings: murine macrophages; for H-Ferritin Protein Levels, Fe-Normal / H-Ferritin Protein Levels, DFO (−Fe) / H-Ferritin Protein Levels, Fe-NTA (+Fe): SPH 160 μM or oligopeptide 10 μM; for H-Ferritin Protein Levels, Fe-Normal: normal iron, average of triplicate; for H-Ferritin Protein Levels, DFO (−Fe): with DFO 100 μM 16 h; for H-Ferritin Protein Levels, Fe-NTA (+Fe): with Fe-NTA 8 h; for intracellular H-Ferritin protein levels: normal and iron-depleted conditions
Protocol: Cell Cultures. MBMMs (C57BL/6 genetic background) were obtained from CellBiologics.net and prepared under the conditions recommended by the supplier. Isolated MBMMs were seeded onto 10 cm diameter Petri dishes and grown in RPMI-GlutaMAX™ medium (Invitrogen) supplemented with 10% heat-inactivated FCS (Gibco), 10% L-cell-conditioned medium (source of colony-stimulating factor 1), 2 mM L-glutamine, 50 U/mL penicillin, and […] streptomycin. At 4 days after seeding, the adherent MBMMs were rinsed twice with Hanks balance salt solution (HBSS), and the medium was renewed for 7 days, at which point the MBMMs had completely differentiated into macrophages that were ready for downstream experimental applications.
Cell Treatments. SPH (average molecular weight of about 1100 Daltons) and oligopeptides were dissolved in sterile water to obtain […] stock solutions. The SPH and oligopeptides were further diluted in cell culture media to reach final concentrations of 160 μM SPH and 10 μM oligopeptide per Petri dish.
Murine macrophages were incubated with SPH or an oligopeptide in the presence or absence of an iron-nitrilotriacetate solution (Fe-NTA; FeCl3 (100 μM)-NTA (400 μM)) for 8 h at 37° C. to increase cellular iron concentration. Murine macrophages were also incubated with SPH or an oligopeptide in the presence or absence of desferrioxamine mesylate (DFO; 100 μM) for 16 h at 37° C. to decrease cellular iron concentration. Commercial collagen peptide (Vital Protein) at a 10 μM concentration and sterile water were used as negative controls.
Quantification of H-Ferritin. Macrophages were washed with cold saline and lysed with 400 μl of a solution containing 50 mM HEPES (Gibco), 1% IGEPAL C-630 (Sigma), and 1% proteases inhibitor cocktail P840 (Sigma). H-Ferritin concentrations in the lysates were determined by ELISA using polyclonal antibodies raised against mouse recombinant H-ferritin subunits and calibrated with the corresponding recombinant homopolymers. The specificity and the absence of cross-reactivity of the antibodies are documented. The results were expressed as (ng ferritin) per (mg total protein) in the cell lysate and shown as an average of triplicate readings in Table 8-1. Total protein content was measured using the BCA protein assay kit (Pierce).

Row | SMILES | FTH1 Fold Change at 0.625 μM (FTH1) | FTH1 Fold Change at 1.25 μM (FTH1) | FTH1 Fold Change at 2.5 μM (FTH1) | FTH1 Fold Change at 5 μM (FTH1) | FTH1 Fold Change at 10 μM (FTH1) | FTH1 Fold Change, Average (FTH1) | FTH1 Fold Change (individual runs) (FTH1) | L-Ferritin Fold Change, Average (L-Ferritin) | L-Ferritin Fold Change (individual runs) (L-Ferritin) | H-Ferritin Protein Levels, Fe-Normal (H-Ferritin) | H-Ferritin Protein Levels, DFO (−Fe) (H-Ferritin) | H-Ferritin Protein Levels, Fe-NTA (+Fe) (H-Ferritin) | intracellular H-Ferritin protein levels (H-Ferritin)
1 | CSCC[C@H](NC(=O)[C@@H]1CCCN1C(=O)[C@H](CCCCN)NC(=O)[C@H](CC(=O)O)NC(=O)[C@H](CO)NC(=O)[C@H](CCC(=O)O)NC(=O)[C@H](CCC(=O)O)NC(=O)[C@@H](N)CCCNC(=N)N)C(=O)N[C@@H](Cc1ccc(O)cc1)C(=O)O [FT-006, REESDKPMY] (H-REESDKPMY-OH) | 1.3 fold | 2.2 fold | 3.5 fold | 4.2 fold | 4.9 fold | 4.7 fold | 4.5 fold and 4.7 fold and 4.9 fold | 1.3 fold | 1.3 fold | 174 ng/mg total protein | 105 ng/mg total protein | 257 ng/mg total protein | substantial increases
2 | N=C(N)NCCC[C@H](NC(=O)[C@@H]1CCCN1)C(=O)N[C@@H](CCC(=O)O)C(=O)N[C@@H](CCC(=O)O)C(=O)N[C@@H](CO)C(=O)N[C@@H](CC(=O)O)C(=O)N[C@@H](CCCCN)C(=O)N1CCC[C@H]1C(=O)O [FT-007, PREESDKP] (H-PREESDKP-OH) | 1.1 fold | 1.0 fold | 1.1 fold | 1.9 fold | 2.8 fold | 2.6 fold | 2.5 fold and 2.6 fold (2×) | 1.1 fold | 1.1 fold and 1.2 fold and 1.0 fold | 142 ng/mg total protein | 111 ng/mg total protein | 197 ng/mg total protein | substantial increases
3 | CC(C)C[C@H](NC(=O)[C@H](CCC(=O)O)NC(=O)CNC(=O)[C@H](CO)NC(=O)[C@H](CCC(=O)O)NC(=O)[C@H](CCC(=O)O)NC(=O)[C@@H](N)CCCNC(=N)N)C(=O)O [FT-008, REESGEL] (H-REESGEL-OH) | 1.1 fold | 1.0 fold | 2.1 fold | 2.7 fold | 3.8 fold | 3.6 fold | 3.9 fold and 3.3 fold and 3.7 fold | 1.6 fold | 1.8 fold and 1.6 fold and 1.5 fold | 158 ng/mg total protein | 122 ng/mg total protein | 200 ng/mg total protein | substantial increases
